One assay addresses T1, Human recombinant MMP-2 (Homo sapiens, UniProt P08253).
T1 construct: made in house; host or cells: MMP-2-transfected p2AHT2 cells
T1 sequence (P08253 110-660): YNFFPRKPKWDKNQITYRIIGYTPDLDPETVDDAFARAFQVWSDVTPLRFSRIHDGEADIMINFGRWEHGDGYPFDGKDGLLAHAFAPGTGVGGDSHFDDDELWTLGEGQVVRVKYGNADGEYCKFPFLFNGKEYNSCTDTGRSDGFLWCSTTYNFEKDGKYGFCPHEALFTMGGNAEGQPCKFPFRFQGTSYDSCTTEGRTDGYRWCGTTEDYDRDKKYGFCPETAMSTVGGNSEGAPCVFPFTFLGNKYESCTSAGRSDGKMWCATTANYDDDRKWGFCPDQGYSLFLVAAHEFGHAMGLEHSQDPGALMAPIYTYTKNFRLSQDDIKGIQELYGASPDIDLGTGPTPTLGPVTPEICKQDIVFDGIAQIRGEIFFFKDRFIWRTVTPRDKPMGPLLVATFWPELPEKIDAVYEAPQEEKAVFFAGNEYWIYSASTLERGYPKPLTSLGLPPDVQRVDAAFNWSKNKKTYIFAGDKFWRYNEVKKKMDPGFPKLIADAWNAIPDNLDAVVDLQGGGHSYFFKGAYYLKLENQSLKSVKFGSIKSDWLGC
In words: In vitro MMP inhibition, IC50 determination (fluorogenic substrate I). The class given is biochemical. The conditions noted are these: value outside parenthesis. In short, it runs like this: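 IC50 was derived from the concentration-dependent fall in fluorescence (ex 328, em 415 nm) on Gly-Leu cleavage of 4 μM MCA/Dpa-quenched substrate I. Assays ran at room temperature in pH 7.5 Tris/NaCl/CaCl2/Brij buffer with MMP-2 activated by trypsin or APMA; inhibitors were diluted from 1% DMSO stocks.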

Another assay concerns the target T2, Human recombinant MMP-13 (Homo sapiens, UniProt P45452).
T2 construct: made in house; host or cells: baculovirus / insect cells
The description is as above. The assay is classed as biochemical. The conditions noted are these: value outside parenthesis. In outline: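 Fluorescence at 415 nm (excitation 328 nm) reports Gly-Leu cleavage of 4 μM quenched methoxycoumarin peptide substrate I. Human recombinant MMP-13, activated by trypsin or APMA, was incubated at room temperature with varied inhibitor concentrations in pH 7.5 Tris/NaCl/CaCl2 buffer; IC50 derived from reduced fluorescence.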

Turning to `O=C(NO)C1(S(=O)(=O)c2ccc(OCCCc3nc(-c4ccc(OC(F)(F)F)cc4)no3)cc2)CCN(Cc2ccccc2)CC1` [Example 93], the IC50 stood at 747 nM on Human recombinant MMP-2 and 15.5 nM on Human recombinant MMP-13.
The corresponding values for `CC(C)c1ccc(-c2cccc(CCOc3ccc(S(=O)(=O)C4(C(=O)NO)CCOCC4)cc3)c2)cc1` [Example 109] are 5410 nM and 152 nM.
The corresponding values for `O=C(NO)C1(S(=O)(=O)c2ccc(OCCc3cccc(-c4cc(F)cc(F)c4)c3)cc2)CCOCC1` [Example 110] are 1200 nM and 7.6 nM.
In the same order, the values of `O=C(NO)C1(S(=O)(=O)c2ccc(OCCc3cccc(-c4cccc(F)c4)c3)cc2)CCOCC1` [Example 111] are 559 nM and 2 nM.
For `O=C(NO)C1(S(=O)(=O)c2ccc(OCCc3cccc(-c4ccc(OC(F)(F)F)cc4)c3)cc2)CCOCC1` [Example 112], the values for the IC50 on Human recombinant MMP-2 and at Human recombinant MMP-13 were 66.4 nM and 37.9 nM, respectively.
The corresponding values for `O=C(NO)C1(S(=O)(=O)c2ccc(OCCc3cccc(-c4ccccc4Cl)c3)cc2)CCOCC1` [Example 114] are 1010 nM and 5.2 nM.
In the same order, the values of `Cc1ccccc1-c1cccc(CCOc2ccc(S(=O)(=O)C3(C(=O)NO)CCOCC3)cc2)c1` [Example 116] are 1050 nM and 11.2 nM.
The corresponding values for `Cc1ccc(-c2cccc(CCOc3ccc(S(=O)(=O)C4(C(=O)NO)CCOCC4)cc3)c2)cc1C` [Example 117] are 1740 nM and 16 nM.
As for `Cc1cc(-c2cccc(CCOc3ccc(S(=O)(=O)C4(C(=O)NO)CCOCC4)cc3)c2)ccc1Cl` [Example 118], the IC50 at Human recombinant MMP-2 came to 1860 nM; on Human recombinant MMP-13, 29.8 nM.
The corresponding values for `COc1ccc(-c2cccc(CCOc3ccc(S(=O)(=O)C4(C(=O)NO)CCOCC4)cc3)c2)cc1C` [Example 119] are 1190 nM and 18.3 nM.
In the same order, the values of `O=C(NO)C1(S(=O)(=O)c2ccc(OCCc3cccc(-c4ccc(Cl)c(Cl)c4)c3)cc2)CCOCC1` [Example 121] are 2470 nM and 21.6 nM.
In the same order, the values of `O=C(NO)C1(S(=O)(=O)c2ccc(OCCc3cccc(-c4ccc(Cl)cc4Cl)c3)cc2)CCOCC1` [Example 124] are 2150 nM and 21.9 nM.
On to `O=C(NO)C1(S(=O)(=O)c2ccc(OCCc3cccc(-c4cc(Cl)cc(Cl)c4)c3)cc2)CCOCC1` [Example 126], for which the IC50 turned out to be 3260 nM at Human recombinant MMP-2 and 349 nM at Human recombinant MMP-13.
The corresponding values for `COCCN1CCC(C(=O)NO)(S(=O)(=O)c2ccc(OCCCc3nc(-c4ccc(CC(C)C)cc4C)no3)cc2)CC1` [Example 128] are 659 nM and 23.7 nM.
The corresponding values for `NC(=O)c1cccc(-c2noc(CCCOc3ccc(S(=O)(=O)C4(C(=O)NO)CCN(C5CC5)CC4)cc3)n2)c1` [Example 129] are 41.4 nM and 1.9 nM.
In the same order, the values of `COCCN1CCC(C(=O)NO)(S(=O)(=O)c2ccc(OCCCc3nc(-c4ccc(Br)cc4C)no3)cc2)CC1` [Example 135] are 24.3 nM and 2.9 nM.
On to `O=C(NO)C1(S(=O)(=O)c2ccc(OCCCc3nc(C4CCCCC4)no3)cc2)CCN(C2CC2)CC1` [Example 137], for which the values for the IC50 on Human recombinant MMP-2 and at Human recombinant MMP-13 were 20.4 nM and 7 nM, respectively.
`Cc1cc(-c2cccc(CCCOc3ccc(S(=O)(=O)C4(C(=O)NO)CCOCC4)cc3)c2)ccc1Cl` [Example 166]: the IC50 amounted to 3080 nM on Human recombinant MMP-2 and 136 nM on Human recombinant MMP-13.
The corresponding values for `Cc1cc(-c2cccc(CCCOc3ccc(S(=O)(=O)C4(C(=O)NO)CCOCC4)cc3)c2)ccc1F` [Example 168] are 3430 nM and 34.3 nM.
As for `O=C(NO)C1(S(=O)(=O)c2ccc(OCCCc3cccc(-c4ccc(Cl)c(Cl)c4)c3)cc2)CCOCC1` [Example 169], the IC50 at Human recombinant MMP-2 was 4360 nM; at Human recombinant MMP-13, 70.7 nM.
In the same order, the values of `O=C(NO)C1(S(=O)(=O)c2ccc(OCCCc3cccc(-c4ccc(F)c(F)c4)c3)cc2)CCOCC1` [Example 170] are 1610 nM and 3.3 nM.
The corresponding values for `O=C(NO)C1(S(=O)(=O)c2ccc(OCCCc3cccc(-c4ccc(Cl)cc4Cl)c3)cc2)CCOCC1` [Example 171] are 2290 nM and 62.8 nM.
The corresponding values for `O=C(NO)C1(S(=O)(=O)c2ccc(OCCCc3cccc(-c4cc(Cl)cc(Cl)c4)c3)cc2)CCOCC1` [Example 172] are 5160 nM and 377 nM.
For the compound `CCCCc1ccc(-c2noc(CCCOc3ccc(S(=O)(=O)C4(C(=O)NO)CCOCC4)cc3)n2)c(C)c1` [Example 183], the IC50 on Human recombinant MMP-2 was determined as 708 nM; on Human recombinant MMP-13, 21 nM.
The corresponding values for `COCCN1CCC(C(=O)NO)(S(=O)(=O)c2ccc(OCCCc3nc(-c4ccc(C5(c6ccccc6)CC5)cc4)no3)cc2)CC1` [Example 185] are 84.7 nM and 12.4 nM.
In the same order, the values of `COCCN1CCC(C(=O)NO)(S(=O)(=O)c2ccc(OCCCc3nc(-c4cccc5ccccc45)no3)cc2)CC1` [Example 199] are 133 nM and 7.4 nM.

One may read the IC50 as the midpoint of a concentration-inhibition curve.

The values above are taken from patent US20040024024A1, “Aromatic sulfone hydroxamates and their use as protease inhibitors” (priority 2001, published 2004).
